{
  "source": "patent US12428396B2",
  "about": "“Fused pyridine ring derivative, preparation method therefor, and pharmaceutical use thereof” (priority 2019, dated 2025)",
  "key": {"[1]": {"target": "T1, HIV-1 capsid protein (Human immunodeficiency virus type 1 group M subtype B, UniProt P12493)", "T1 construct": "made in house; host or cells: E. coli (pET30 vector)", "assay": "In vitro polymerization of HIV-1 capsid protein (His-CA/GST-CA, Eu cryptate/XL665 energy transfer)", "type": "biochemical, HIV-1 NL4-3", "text": "• 1. MAb Anti GST-Eu cryptate (Cisbio) • 2. MAb Anti 6HIS-XL665 (Cisbio) • 3. His tag HIV-1 capsid protein (hereinafter referred to as His-CA) • 4. GST tag HIV-1 capsid protein (hereinafter referred to as GST-CA) • 5. 384-well unbound surface microplate, white (Corning) • 6. Microplate reader (BMG)\nThe HIV-1 capsid proteins aggregate spontaneously in high-salt solutions. Capsid protein sequences derived from HIV-1 NL4-3 strains (GeneBank AF324493.2) were separately tagged with 6His tag and GST tag sequences at the C-terminus, cloned into pET30 vectors, and expressed and separately tagged for expression in E. coli system and purified. His-CA and GST-CA were mixed at high-salt concentrations, and the level of polymerization of capsid proteins was detected using GST antibody labeled with Eu3+-Cryptate (energy donor) and His antibody labeled with XL665 (energy acceptor). Since the excitation spectrum of Eu3+-Cryptate overlapped with the excitation spectrum of XL665, when the capsid proteins with these two tags formed a poly complex, the energy donor and the energy acceptor could be drawn to a sufficiently close distance, the energy donor released part of the captured energy under the excitation of an external light source (such as a xenon lamp or a laser), with the emission wavelength being 620 nM, part of the resonance was transferred to the energy acceptor to excite the energy acceptor, with the emission wavelength being 665 nM, and an optical signal was generated, the signal intensity of which was in direct proportion to the degree of polymerization of the tag proteins.\nHis-CA was diluted to 2 μM in a clean tube with protein diluent (50 mM Tris-HCl, pH 8.0, 50 mM NaCl, 0.4 mM MgCl2, 0.05% Triton X-100, 2% glycerol) while MAb Anti 6HIS-XL665 at a final concentration of 260 nM was added; GST-CA was diluted to 20 nM with protein diluent in another clean tube while MAb Anti GST-Eu cryptate at a final concentration of 3.33 nM was added and incubated on ice for half an hour. Compounds were first formulated into a concentration of 20 mM with DMSO, then diluted to a first concentration of 2 mM with DMSO and serially 5-fold diluted to the 8th concentration. Control wells were set and added with DMSO, and serially-diluted compounds were then 20-fold diluted with protein diluent to 10-fold working concentrations. Preparation of capsid protein polymerization liquid at 2-fold concentration: 50 mM Tris-HCl, pH 8.0, 1 M NaCl, 800 mM KF; to a pre-cooled white round-bottomed 384-well plate were added 4 uL of His-CA-His antibody mixture, 4 uL of GST-CA-GST antibody mixture, 2 uL of the compounds at 10-fold concentration and 10 uL of capsid protein polymerization reaction liquid at 2-fold concentration, the plate was sealed with a light-shielding sealing plate membrane after uniformly mixing, and the reaction plate was placed in a 37° C. incubator for incubation for 2 h. After incubation, the samples were excited with an excitation light at 337 nM, and signal values at 620 nM and 665 nM were collected for detection, wherein Ratio values=(665 nM/620 nM signal)×10000 was calculated according to the signal values. IC50 values for compounds were calculated using Graphpad Prism software based on each concentration of the compounds and the corresponding Ratio values."}, "[2]": {"assay": "Beagle pharmacokinetic study (ig/sc/iv, plasma LC/MS/MS)", "type": "in vivo, beagles", "conditions": "for AUC(0-t) / half-life / Cmax: dog, plasma; for AUC(0-t): read-out: Area under curve AUC0-72; for half-life: read-out: Half life T½ (converted); for Cmax: read-out: Plasma concentration Cmax", "experimental": "Taking beagles as test animals, and the drug concentrations in dog plasma at various times after intragastric administration (ig)/subcutaneous injection (sc)/intravenous injection (iv) administration of the compound of Example 1-1 and Positive Control Example 1 were measured by using LC/MS/MS method. The pharmacokinetic performance in beagles of the compounds of the present disclosure was studied and the pharmacokinetic profile thereof was evaluated.\n18 non-naïve beagles (999M-004, medicilon) with 7-12 kg, every 3 of which were in one group.\nThe intragastric administration group: a certain amount of the compounds was weighed, ethanol with a volume of 5% of the final volume, 20% PG, 45% PEG300 and 30% deionized water were added (the pH was adjusted to be about 2 with 0.01 N HCl), and the reaction mixture was subjected to ultrasonic stirring for uniform mixing to give an administration solution at a concentration of 0.8 mg/mL.\nThe subcutaneous injection administration group: a certain amount of the compounds was weighed, 2% aqueous poloxamer 188 solution with a proper volume was added, and the reaction mixture was subjected to ultrasonic stirring for uniform mixing to give a suspension administration solution at a concentration of 200 mg/mL.\nThe intravenous administration group: a certain amount of the compounds was weighed, 5% volume of DMSO, 30% PG, 30% PEG400 and 35% volume of normal saline were added, and the reaction mixture was subjected to vortex ultrasonic stirring for uniform mixing to give an administration solution at a concentration of 0.5 mg/mL.\nBeagles were intragastrically administered with the compounds after fasting overnight, at a dose of 4.0 mg/kg and a volume of 5.0 mL/kg.\nBeagles were subcutaneously injected with the compounds after fasting overnight, at a dose of 6.0 mg/kg and a volume of 0.03 mL/kg.\nBeagles were intravenously injected with the compounds after fasting overnight, at a dose of 1.0 mg/kg and a volume of 2 mL/kg.\nBeagles were intragastrically administered with the compound of Example 1-1/Positive Control Example 1, and 1 mL of blood was collected from the orbit before administration and at 0.25 h, 0.5 h, 1.0 h, 2.0 h, 4.0 h, 6.0 h, 8.0 h, 12.0 h, 24 h, 32 h, 48 h, 56 h and 72 h after administration, respectively, and placed in EDTA-K2 anticoagulant blood collection tubes, plasma was centrifuged (centrifugal force: 2200 g, centrifugation time: 10 min, 2-8° C.), and stored at −80° C., and food intake was resumed 3 h after administration.\nThe compound of Example 1-1/Positive Control Example 1 was subcutaneously injected to beagles, and 1 mL of blood was collected before administration and at 1.0 h, 3.0 h, 8.0 h, 24 h, 48 h, 72 h, 96 h, 168 h, 336 h, 432 h and 504 h after administration, respectively, and placed in EDTA-K2 anticoagulant blood collection tubes, plasma was centrifuged (centrifugal force: 2200 g, centrifugation time: 10 min, 2-8° C.), and stored at −80° C., and food intake was resumed 3 h after administration.\nThe content of the compound to be tested in the plasma of beagles was determined after the intragastric administration of the compounds at different concentrations: 20 μL of the plasma in beagles at each time after administration was taken, 200 μL of methanol containing internal standard (100 ng/mL) was added, the reaction mixture was subjected to vortex mixing for 1 min, and centrifuged for 7 min (centrifugal force: 18000 g), and 1 μL of the supernatant was taken from the plasma sample for LC/MS/MS analysis. […]"}, "[3]": {"conditions": "po, intragastric administration, 4 mg/kg"}, "[4]": {"conditions": "sc, subcutaneous injection, 6 mg/kg"}},
  "note": "Read-outs that look alike come from different tables or passages of the source.",
  "data": [
    {"smiles": "CC(C)(C#Cc1nc([C@H](Cc2cc(F)cc(F)c2)NC(=O)Cn2nc(C(F)(F)F)c3c2C(F)(F)[C@@H]2C[C@H]32)c(-c2ccc(Cl)c3c(NS(C)(=O)=O)nn(CC(F)(F)F)c23)c2c1CCC2)S(C)(=O)=O", "note": "(atropisomer, axis not shown; (aR)) [Example 1-1, N—((S)-1-((R)-4-(4-chloro-3-(methanesulfonamide)-1-(2,2,2-trifluoroethyl)-1H-indazol-7-yl)-1-(3-methyl-3-(methylsulfonyl)but-1-yn-1-yl)-6,7-dihydro-5H-cyclopenta[c]pyridin-3-yl)-2-(3,5-difluorophenyl)ethyl)-2-((3bS,4aR)-5,5-difluoro-3-(trifluoromethyl)-3b,4,4a,5-tetrahydro-1H-cyclopropa[3,4]cyclopenta[1,2-c]pyrazol-1-yl)acetamide]", "values": [
      {"measurement": "IC50", "setting": "[1]", "result": 9, "unit": "nM"},
      {"measurement": "Imax", "setting": "[1]; 37° C., 2 h incubation", "result": 100, "unit": "%"},
      {"measurement": "AUC(0-t)", "setting": "[2]; intravenous injection, 1 mg/kg", "result": 16500, "unit": "ng·h/mL"},
      {"measurement": "half-life", "setting": "[2]; intravenous injection, 1 mg/kg", "result": 41.8, "unit": "h"},
      {"measurement": "Cmax", "setting": "[2]; intravenous injection, 1 mg/kg", "result": 1320, "unit": "ng/mL"},
      {"measurement": "AUC(0-t)", "setting": "[2]; [3]", "result": 8230, "unit": "ng·h/mL"},
      {"measurement": "half-life", "setting": "[2]; [3]", "result": 44.3, "unit": "h"},
      {"measurement": "Cmax", "setting": "[2]; [3]", "result": 251, "unit": "ng/mL"},
      {"measurement": "AUC(0-t)", "setting": "[2]; [4]", "result": 34800, "unit": "ng·h/mL"},
      {"measurement": "Cmax", "setting": "[2]; [4]", "result": 122, "unit": "ng/mL"},
      {"measurement": "Clearance CLz/F", "setting": "[2]; intravenous injection, 1 mg/kg", "result": 0.7, "unit": "mL/min/kg"}
    ]}
  ]
}
